Data on 21 compounds can be found in patent US11098061B2 (Celgene CAR LLC, priority 2013, dated 2021).

Where only a bound is given, the exact number is not on record here.

By IC50 is commonly meant the point on the concentration scale where inhibition reaches its midpoint.

The target of assay [1] is p38a activated, mitogen-activated protein kinase-activated protein kinase 2 (MAPKAP-K2 or MK-2) enzyme (Homo sapiens (Human), UniProt P49137). Briefly: MK2 Omnia continuous-read kinase assay for compound potency. The format is biochemical. The conditions noted are these: [MK-2]=0.4 nM, [ATP]=1.0 mM, [ST3-Sox]=10 μM. The method in brief: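 Continuous Omnia fluorescence read (λex360/λem485) every 71 s after starting with 0.4 nM MK-2, with 1.0 mM ATP (appKM 8-10 μM) and 10 μM ST3-Sox substrate.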

Assay [2] has as its target T1, MK2 (Homo sapiens (Human), UniProt P49137). Description: MK2 modification assessment by whole protein mass spectrometry. The conditions noted are these: intact MK2, 60 min, 10-fold excess of compound to protein. It is filed as binding. A digest of the protocol: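 MK2 treated with compound is analysed intact by MALDI-TOF after C4 cleanup in sinapinic acid matrix. Percent modification is the centroid mass shift against control MK2 divided by compound mass.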

Assay [3] has as its target T1, MK2. Briefly: MK2 cellular assay (Hsp27 phosphorylation in Thp-1 cells). The conditions noted are these: differentiated Thp-1 cells, compound 1 hour, 50 ng/ml LPS 15 minutes, phosphorylation of Hsp27; read-out: MK2EC50. It is filed as cell-based. Here is the method: Compounds were assayed in Thp-1 human acute monocytic leukemia cells to measure inhibition of MK2 activity. Thp-1 were grown in suspension in T225 flasks. Two days prior to assay, Thp-1 cells were spun down, counted and plated at 1×10^6 cells per well of a 12 well plate in complete media containing 10 ng/ml PMA (phorbol myristate acetate) to differentiate the cells. On day of assay, cells were washed with complete media, and compound was added to differentiated Thp-1 cells for 1 hour. Cells were washed again, and complete media containing 50 ng/ml LPS (lipopolysaccharide) was added. After 15 minutes, cells were washed once with PBS and lysed on ice with BioRad Bioplex lysis buffer. 20 μg total protein from lysates were loaded on gel and blots were probed for phosphorylation of the MK2 substrate Hsp27. Dose response inhibition of MK2 signaling in differentiated Thp-1 cells was used to determine the EC50 for compounds reported in Table A in the column entitled “MK2 EC50.”

T1 sequence (P49137 whole entry): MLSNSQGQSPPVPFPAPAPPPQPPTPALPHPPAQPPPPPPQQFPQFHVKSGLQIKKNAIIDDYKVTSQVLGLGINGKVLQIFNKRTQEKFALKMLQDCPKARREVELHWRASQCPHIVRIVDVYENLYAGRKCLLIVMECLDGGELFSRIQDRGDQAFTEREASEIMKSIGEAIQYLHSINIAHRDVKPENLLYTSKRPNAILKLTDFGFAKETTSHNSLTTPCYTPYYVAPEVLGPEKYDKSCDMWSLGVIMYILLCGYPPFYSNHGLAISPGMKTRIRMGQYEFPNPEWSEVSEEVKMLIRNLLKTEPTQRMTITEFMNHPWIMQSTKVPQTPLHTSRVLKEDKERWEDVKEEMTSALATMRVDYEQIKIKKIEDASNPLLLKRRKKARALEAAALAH
Sequence of p38a activated, mitogen-activated protein kinase-activated protein kinase 2 (MAPKAP-K2 or MK-2) enzyme (P49137 whole entry): as above

In the case of `C=CC(=O)N1C[C@@H](C)Oc2ccc(NC(=O)c3ccc4sc5c(c4c3)NC[C@@H](C)NC5=O)cc21` [III-31, (R)—N—((R)-4-acryloyl-2-methyl-3,4-dihydro-2H-benzo[b][1,4]oxazin-6-yl)-3-methyl-5-oxo-2,3,4,5-tetrahydro-1H-benzo[4,5]thieno[3,2-e][1,4]diazepine-9-carboxamide], the 50% inhibitory concentration (IC50) in assay [1] was under 100 nM. Further, the “MK2 Mass Mod” value at MK2 [2] is “E (mass modification of ≥70%)”. For the same compound, the EC50 on MK2 [3] is under 100 nM.
Consider `C=CC(=O)Nc1cccc2[nH]c(-c3ccc4cc5n(c4c3)C3(CCC3)CNC5=O)nc12` [Compound V-63, N-(2-(1′-oxo-2′,3′-dihydro-1′H-spiro[cyclobutane-1,4′-pyrazino [1,2-a]indol]-7′-yl)-1H-benzo[d]imidazol-4-yl)acrylamide], for which the IC50 in assay [1] was under 100 nM. The “MK2 Mass Mod” value on MK2 [2] is reported as “E (mass modification of ≥70%)”. The EC50 at MK2 [3] is under 100 nM.
Take `C=CC(=O)N1CCCC(NC(=O)c2ccc3sc4c(c3c2)NC[C@@H](C)NC4=O)C1` (stereo partly drawn) [III-51, (3R)—N-(1-acryloylpiperidin-3-yl)-3-methyl-5-oxo-2,3,4,5-tetrahydro-1H-benzo[4,5]thieno[3,2-e][1,4]diazepine-9-carboxamide]: the IC50 in assay [1] was under 100 nM. Besides, the “MK2 Mass Mod” value at MK2 [2] was “E (mass modification of ≥70%)”. For the same compound, the EC50 at MK2 [3] was under 100 nM.
As for `C=CC(=O)Nc1cc(OCC)ccc1Nc1c(C)c(NC2CCCNC2)nc2ccnn12` (stereo not drawn) [IV-2, N-(5-ethoxy-2-((6-methyl-5-(piperidin-3-ylamino)pyrazolo [1,5-a]pyrimidin-7-yl)amino)phenyl)acrylamide], the IC50 in assay [1] was in the range of 101 to 500 nM. At MK2 [2], the “MK2 Mass Mod” value is “E (mass modification of ≥70%)”. In addition, the EC50 on MK2 [3] is over 1000 nM.
Taken in the same sequence, the figures for `C=CC(=O)Nc1cc(NC(=O)c2ccc3cc4n(c3c2)C2(CCC2)CNC4=O)ccc1F` [Compound V-54, N-(3-acrylamido-4-fluorophenyl)-1′-oxo-2′,3′-dihydro-1′H-spiro[cyclobutane-1,4′-pyrazino[1,2-a]indole]-7′-carboxamide] were 101 to 500 nM, “E (mass modification of ≥70%)” and 101 to 500 nM.
Taken in the same sequence, the figures for `C=CC(=O)Nc1cc(-c2cc3c(ccc4c5c([nH]c43)CCC5=O)cn2)ccc1N1CCN(C)CC1` [II-e-4, N-(2-(4-methylpiperazin-1-yl)-5-(7-oxo-7,8,9,10-tetrahydrocyclopenta[4,5]pyrrolo[2,3-f]isoquinolin-2-yl)phenyl)acrylamide] were under 100 nM, “E (mass modification of ≥70%)” and under 100 nM.
For `C=CC(=O)Nc1cc(C2CCN(C)CC2)cc2oc(-c3ccc4cc5n(c4c3)C3(CCC3)CNC5=O)nc12` [Compound V-61, N-(6-(1-methylpiperidin-4-yl)-2-(1′-oxo-2′,3′-dihydro-1′H-spiro[cyclobutane-1,4′-pyrazino [1,2-a]indol]-7′-yl)benzo[d]oxazol-4-yl)acrylamide], in that order: under 100 nM, “E (mass modification of ≥70%)” and under 100 nM.
As for `C=CC(=O)N1CCOc2ccc(-c3nccc(-c4cc5n(c4)CCNC5=O)n3)cc21` [V-c-3, 7-(2-(4-acryloyl-3,4-dihydro-2H-benzo[b][1,4]oxazin-6-yl)pyrimidin-4-yl)-3,4-dihydropyrrolo[1,2-a]pyrazin-1(2H)-one], the IC50 in assay [1] was under 100 nM. At MK2 [2], the “MK2 Mass Mod” value is reported as “E (mass modification of ≥70%)”. Also, the EC50 at MK2 [3] is over 1000 nM.
For `C=CC(=O)Nc1ccccc1NC(=O)c1ccc2sc3c(c2c1)NC[C@@H](C)NC3=O` [III-10, (R)—N-(2-acrylamidophenyl)-3-methyl-5-oxo-2,3,4,5-tetrahydro-1H-benzo[4,5]thieno[3,2-e][1,4]diazepine-9-carboxamide], in that order: 101 to 500 nM, “E (mass modification of ≥70%)” and over 1000 nM.
Turning to `C=CC(=O)N1CCOc2ccc(-c3cc4c(ccc5c6c([nH]c54)CCC6=O)cn3)cc21` [II-e-8, 2-(4-acryloyl-3,4-dihydro-2H-benzo[b][1,4]oxazin-6-yl)-8,9-dihydrocyclopenta[4,5]pyrrolo[2,3-f]isoquinolin-7(10H)-one], the IC50 in assay [1] was under 100 nM. The “MK2 Mass Mod” value on MK2 [2] was “E (mass modification of ≥70%)”. Also, the EC50 at MK2 [3] is over 1000 nM.
Taken in the same sequence, the figures for `C=CC(=O)N1CCOc2ccc(NC(=O)c3ccc4cc5n(c4c3)CCNC5=O)cc21` [Compound V-6, N-(4-acryloyl-3,4-dihydro-2H-benzo[b][1,4]oxazin-6-yl)-1-oxo-1,2,3,4-tetrahydropyrazino[1,2-a]indole-7-carboxamide] were under 100 nM, “E (mass modification of ≥70%)” and over 1000 nM.
Turning to `C=CC(=O)NC1CCCC1NC(=O)c1ccc2cc3n(c2c1)C1(CCC1)CNC3=O` (racemic) [Compound V-56, N-trans-(2-acrylamidocyclopentyl)-1′-oxo-2′,3′-dihydro-1′H-spiro[cyclobutane-1,4′-pyrazino[1,2-a]indole]-7′-carboxamide (racemic)], the IC50 in assay [1] is over 1000 nM. Also, on MK2 [2], the “MK2 Mass Mod” value was “F (mass modification of 31-69%)”. For the same compound, the EC50 at MK2 [3] is over 1000 nM.
As for `C=CC(=O)N1CCOc2ccc(-c3cc4c(cn3)CCc3c-4[nH]c4c3C(=O)NC3(CC3)C4)cc21` [II-12, 2′-(4-acryloyl-3,4-dihydro-2H-benzo[b][1,4]oxazin-6-yl)-5′,6′,10′,11′-tetrahydrospiro[cyclopropane-1,9′-pyrido[3′,4′:4,5]pyrrolo[2,3-f]isoquinolin]-7′(8′H)-one], the IC50 in assay [1] was under 100 nM. The “MK2 Mass Mod” value at MK2 [2] was “E (mass modification of ≥70%)”. Moreover, the EC50 on MK2 [3] lay within 501 to 999 nM.
In the case of `C=CC(=O)Nc1cc(-c2cc(-c3cc4c([nH]3)C3(CCCNC3)CNC4=O)ccn2)cc(C(F)(F)F)c1` (stereo not drawn) [Compound I-9], the IC50 in assay [1] was under 100 nM. For the same compound, at MK2 [2], the “MK2 Mass Mod” value is “E (mass modification of ≥70%)”. Moreover, the EC50 at MK2 [3] was over 1000 nM.
Taken in the same sequence, the figures for `C=CC(=O)Nc1cc(-c2cc3c(cn2)CCc2c-3[nH]c3c2C(=O)NCC3)ccc1OCCOC` [II-16, N-(2-(2-methoxyethoxy)-5-(7-oxo-6,7,8,9,10,11-hexahydro-5H-pyrido[3′,4′:4,5]pyrrolo[2,3-f]isoquinolin-2-yl)phenyl)acrylamide] were under 100 nM, “E (mass modification of ≥70%)” and under 100 nM.
For `C=CC(=O)Nc1cccc(NC(=O)c2ccc3sc4c(c3c2)NC[C@@H](C)NC4=O)c1` [III-12, (R)—N-(3-acrylamidophenyl)-3-methyl-5-oxo-2,3,4,5-tetrahydro-1H-benzo[4,5]thieno[3,2-e][1,4]diazepine-9-carboxamide], in that order: under 100 nM, “F (mass modification of 31-69%)” and 501 to 999 nM.
For `C=CC(=O)Nc1cc(-c2cc(-c3cc4c([nH]3)C3(CCCNC3)CNC4=O)ccn2)ccc1F` (stereo not drawn) [Compound I-8], in that order: under 100 nM, “E (mass modification of ≥70%)” and over 1000 nM.
`C=CC(=O)Nc1cc(NC(=O)c2ccc3sc4c(c3c2)NC[C@@H](C)NC4=O)ccc1N1CCNCC1` [III-5, (R)—N-(3-acrylamido-4-(piperazin-1-yl)phenyl)-3-methyl-5-oxo-2,3,4,5-tetrahydro-1H-benzo[4,5]thieno[3,2-e][1,4]diazepine-9-carboxamide]: in assay [1], the IC50 is under 100 nM. Moreover, the “MK2 Mass Mod” value at MK2 [2] was “E (mass modification of ≥70%)”. Besides, on MK2 [3], the EC50 is over 1000 nM.
`C=CC(=O)N1CCOc2ncc(-c3cc4c(cn3)CCc3c-4[nH]c4c3C(=O)NC3(CC3)C4)cc21` [II-9, 2′-(1-acryloyl-2,3-dihydro-1H-pyrido[2,3-b][1,4]oxazin-7-yl)-5′,6′,10′,11′-tetrahydrospiro[cyclopropane-1,9′-pyrido[3′,4′:4,5]pyrrolo[2,3-f]isoquinolin]-7′(8′H)-one]: the IC50 in assay [1] was under 100 nM. Besides, the “MK2 Mass Mod” value at MK2 [2] is listed as “E (mass modification of ≥70%)”. Further, the EC50 on MK2 [3] is over 1000 nM.
Taken in the same sequence, the figures for `C=CC(=O)Nc1cc(-c2cc3c(cn2)CCc2c-3[nH]c3c2C(=O)NCC3)cnc1N1CCN(C)CC1` [II-26, N-(2-(4-methylpiperazin-1-yl)-5-(7-oxo-6,7,8,9,10,11-hexahydro-SH-pyrido[3′,4′:4,5]pyrrolo[2,3-f]isoquinolin-2-yl)pyridin-3-yl)acrylamide] were under 100 nM, “E (mass modification of ≥70%)” and 101 to 500 nM.
Taken in the same sequence, the figures for `C=CC(=O)N1CCOc2ccc(NC(=O)c3ccc4sc5c(c4c3)NC[C@@H](C)NC5=O)cc21` [III-11, (R)—N-(4-acryloyl-3,4-dihydro-2H-benzo[b][1,4]oxazin-6-yl)-3-methyl-5-oxo-2,3,4,5-tetrahydro-1H-benzo[4,5]thieno[3,2-e][1,4]diazepine-9-carboxamide] were under 100 nM, “E (mass modification of ≥70%)” and under 100 nM.
